Values joined by “and” are separate entries in the source; they are usually repeats but may differ in a detail not shown here. Identical values can stand only once. Like-named read-outs stand apart in the source and are kept apart here.
Key:
[1] = test system: green peach aphid (Myzus persicae); assay: Myzus persicae spray test (Chinese cabbage leaf discs); format: in vivo; details: for pest or weed control at 500 g/ha: Myzus persicae, foliar, read-out: efficacy (aphids killed)
Procedure: Myzus persicae—Spray Test
Solvent: 78 parts by weight of acetone • • 1.5 parts by weight of dimethylformamide
(§1) Emulsifier: alkylaryl polyglycol ether
(§2) To produce a suitable active compound preparation, 1 part by weight of active compound is dissolved using the stated parts by weight of solvent and made up with water containing an emulsifier concentration of 1000 ppm until the desired concentration is attained. To produce further test concentrations, the preparation is diluted with emulsifier-containing water.
Discs of Chinese cabbage leaves (Brassica pekinensis) infested by all stages of the green peach aphid (Myzus persicae) are sprayed with an active compound preparation of the desired concentration.
After 5 or 6 days, the efficacy in % is determined. 100% means that all the aphids were killed; 0% means that no aphids were killed.

[2] = test system: green peach aphid (Myzus persicae); assay: Contrasting example: Myzus persicae spray test (MYZUPE); format: in vivo; details: for pest or weed control at 100 g/ha: Myzus persicae, 144 h, read-out: % efficacy
Procedure: Myzus persicae—Spray Test (MYZUPE)
Solvents: 78.0 parts by weight of acetone • • 1.5 parts by weight of dimethylformamide
as §1, §2
Discs of Chinese cabbage leaves (Brassica pekinensis), infested by all stages of the green peach aphid (Myzus persicae) are sprayed with an active compound preparation of the desired concentration.
After the desired period of time, the efficacy in % is determined. 100% means that all aphids were killed; 0% means that no aphids were killed.

[3] = log P by HPLC on reversed-phase C18 columns (OECD Guideline 117); format: physicochemical
Procedure: The log P values were determined in accordance with OECD Guideline 117 (EC Directive 92/69/EEC) by HPLC (high-performance liquid chromatography) using reversed-phase (RP) columns (C18), by the following methods:
[a] The LC-MS determination in the acidic range was carried out at pH 2.7 with 0.1% aqueous formic acid and acetonitrile (contains 0.1% formic acid) as mobile phases; linear gradient from 10% acetonitrile to 95% acetonitrile.
[b] LC-MS determination in the neutral range was carried out at pH 7.8 with 0.001 molar aqueous ammonium hydrogencarbonate solution and acetonitrile as mobile phases; linear gradient from 10% acetonitrile to 95% acetonitrile.

[4] = application rate 500 g/ha, after 5 or 6 days, Chinese cabbage leaf discs
[5] = reversed-phase C18 HPLC column, pH 2.7, acidic range, pH 2.7, 0.1% aqueous formic acid / acetonitrile, read-out: log P[a]
[6] = reversed-phase C18 HPLC column, pH 7.8, neutral range, pH 7.8, 0.001 molar aqueous ammonium hydrogencarbonate / acetonitrile, read-out: log P[n]
[7] = reversed-phase C18 HPLC column, pH 2.7, method [a], read-out: logP[a]
[8] = reversed-phase C18 HPLC column, pH 7.8, method [b], read-out: logP[b]

| SMILES | efficacy (aphids killed) [1, 4] [%] | % efficacy ([2]; MYZUPE, 100 g ai/ha, 6 dat) [%] | logP[a] ([3]; method [a]) | logP[b] ([3]; method [b]) | other results |
| --- | --- | --- | --- | --- | --- |
| Cc1cc(C)nc(Sc2ncc(C(=O)N(C)c3cccnc3)n2C)n1 [I-A-1] | – | – | – | – | pest or weed control at 500 g/ha [1, 4]: 100%; pest or weed control at 100 g/ha ([2]; MYZUPE, 100 g ai/ha, 6 dat): 100%; log P[a] ([3]; acidic range, pH 2.7, 0.1% aqueous formic acid / acetonitrile): 1.26; log P[n] ([3]; neutral range, pH 7.8, 0.001 molar aqueous ammonium hydrogencarbonate / acetonitrile): 1.46; chromatographic logP [3, 5]: 1.31; chromatographic logP [3, 6]: 1.41 |
| CN(C(=O)c1cnc(SCC2CC2)n1C)c1cccnc1 [I-A-2] | – | – | – | – | pest or weed control at 500 g/ha [1, 4]: 100%; pest or weed control at 100 g/ha ([2]; MYZUPE, 100 g ai/ha, 6 dat): 90%; chromatographic logP [3, 5]: 1.28; chromatographic logP [3, 6]: 1.81 |
| CN(C(=O)c1cnc(Sc2ncccn2)n1C)c1cccnc1 [I-A-3] | – | – | – | – | pest or weed control at 500 g/ha [1, 4]: 100%; pest or weed control at 100 g/ha ([2]; MYZUPE, 100 g ai/ha, 6 dat): 90%; chromatographic logP [3, 5]: 0.69; chromatographic logP [3, 6]: 0.98 |
| CCCCSc1ncc(C(=O)N(C)c2cccnc2)n1C [I-A-5] | 90 | 100 | 1.67 | 1.99 | – |
| CN(C(=O)c1cnc(S(C)(=O)=O)n1C)c1cccnc1 [I-A-8] | 100 | 90 | 0.45 | 0.67 | – |
| CSc1cccc(Sc2ncc(C(=O)N(C)c3cccnc3)n2C)c1 [I-A-9] | – | 70 | 2.0 | 2.12 | efficacy (aphids killed) ([1]; application rate 20 g/ha, after 5 or 6 days, Chinese cabbage leaf discs): 90% |
| CN(C(=O)c1cnc(SCC(F)(F)F)n1C)c1cccnc1 [I-A-10] | 100 | 100 | 1.41 | 1.54 | – |
| CN(C(=O)c1cnc(Sc2ccccc2)n1C)c1cccnc1 [I-A-11] | 100 | 90 | 1.55 | 1.75 | – |
| Cc1ccc(Sc2ncc(C(=O)N(C)c3cccnc3)n2C)cc1 [I-A-12] | 90 | 70 | 1.89 | 2.03 | – |
| CCSCCSc1ncc(C(=O)N(C)c2cccnc2)n1C [I-A-14] | 90 | 90 | 1.61 | 1.87 | – |
| COCCSc1ncc(C(=O)N(C)c2cccnc2)n1C [I-A-18] | 100 | 90 | 0.76 | 1.14 | – |
| CC(C)Sc1ncc(C(=O)N(C)c2cccnc2)n1C [I-A-19] | 100 | 90 | 1.23 | 1.53 | – |
| CCCSc1ncc(C(=O)N(C)c2cccnc2)n1C [I-A-21] | 100 | 100 | 1.31 | 1.60 | – |
| CCOCCSc1ncc(C(=O)N(C)c2cccnc2)n1C [I-A-22] | 100 | 90 | 1.04 | 1.41 | – |
| CSCCSc1ncc(C(=O)N(C)c2cccnc2)n1C [I-A-26] | 100 | 70 | 1.23 | 1.55 | – |
| C=CCSc1ncc(C(=O)N(C)c2cccnc2)n1C [I-A-27] | 90 | 70 | 1.08 and 1.11 | 1.40 | – |
| C#CCSc1ncc(C(=O)N(C)c2cccnc2)n1C [I-A-30] | 90 | 90 | 0.87 | 1.22 | – |
| CCSc1ncc(C(=O)N(C)c2cccnc2)n1C [I-A-36] | 90 | 90 | 0.95 | 1.31 | – |
| CN(C(=O)c1cnc(SC(F)(F)F)n1C)c1cccnc1 [I-A-37] | – | – | – | – | pest or weed control at 500 g/ha [1]: 100%; pest or weed control at 100 g/ha [2]: 100%; chromatographic logP [3, 7]: 1.29; chromatographic logP [3, 8]: 1.45 |
| CN(C(=O)c1cnc(SC(F)F)n1C)c1cccnc1 [I-A-38] | – | – | – | – | pest or weed control at 500 g/ha [1]: 90%; pest or weed control at 100 g/ha [2]: 70%; chromatographic logP ([3]; pH 2.7, method [a], read-out: logP[a]): 0.91; chromatographic logP ([3]; pH 7.8, method [b], read-out: logP[b]): 1.17 |
| CCS(=O)(=O)c1ncc(C(=O)N(C)c2cccnc2)n1C [I-A-40] | 100 | 90 | 0.68 | 0.88 | – |

| SMILES | efficacy (aphids killed) [1, 4] [%] | % efficacy ([2]; MYZUPE, 100 g ai/ha, 6 dat) [%] | logP[a] ([3]; method [a]) | logP[b] ([3]; method [b]) | other results |
| --- | --- | --- | --- | --- | --- |
| CNC(=O)C[S+]([O-])c1ncc(C(=O)N(C)c2cccnc2)n1C (stereo not drawn) [I-A-43] | – | – | – | – | pest or weed control at 100 g/ha ([2]; MYZUPE, 100 g ai/ha, 6 dat): 70%; chromatographic logP [3, 7]: 0.27; chromatographic logP [3, 8]: 0.22 |
| CSc1ncc(C(=O)N(C)c2cccnc2)n1C [I-A-45] | – | – | – | – | pest or weed control at 500 g/ha [1, 4]: 100%; pest or weed control at 100 g/ha ([2]; MYZUPE, 100 g ai/ha, 6 dat): 90%; chromatographic logP [3, 7]: 0.54; chromatographic logP [3, 8]: 1.04 |
| CN(C(=O)c1cnc(SCC(F)(F)C(F)(F)Cl)n1C)c1cccnc1 [I-A-46] | 100 | – | 2.09 | 2.17 | % efficacy ([2]; MYZUPE, 100 g ai/ha, 5 dat): 90% |
| CN(C(=O)c1cnc(SCCC(F)(F)F)n1C)c1cccnc1 [I-A-47] | 100 | – | 1.65 | 1.84 | % efficacy ([2]; MYZUPE, 100 g ai/ha, 5 dat): 90% |
| CN(C(=O)c1cnc(SCCCF)n1C)c1cccnc1 [I-A-48] | 100 | – | 1.11 | 1.40 | % efficacy ([2]; MYZUPE, 100 g ai/ha, 5 dat): 90% |
| CN(C(=O)c1cnc(SCC(F)(F)C(F)F)n1C)c1cccnc1 [I-A-49] | 100 | – | 1.55 | 1.71 | % efficacy ([2]; MYZUPE, 100 g ai/ha, 5 dat): 90% |
| CN(C(=O)c1cnc(SCCSCC(F)(F)F)n1C)c1cccnc1 [I-A-50] | 100 | – | 1.94 | 2.10 | % efficacy ([2]; MYZUPE, 100 g ai/ha, 5 dat): 100% |
| CN(C(=O)c1cnc(SC2CCSCC2)n1C)c1cccnc1 [I-A-51] | 100 | – | 1.47 | 1.73 | % efficacy ([2]; MYZUPE, 100 g ai/ha, 5 dat): 100% |
| CN(C(=O)c1cnc(SC2CCOCC2)n1C)c1cccnc1 [I-A-52] | 100 | – | 0.90 | 1.25 | % efficacy ([2]; MYZUPE, 100 g ai/ha, 5 dat): 100% |
| CC(C)CCSc1ncc(C(=O)N(C)c2cccnc2)n1C [I-A-53] | 100 | – | 2.68 | 2.76 | % efficacy ([2]; MYZUPE, 100 g ai/ha, 5 dat): 100% |
| CN(C(=O)c1cnc(SC2COC2)n1C)c1cccnc1 [I-A-54] | 100 | – | 0.63 | 0.98 | % efficacy ([2]; MYZUPE, 100 g ai/ha, 5 dat): 90% |
| CN(C(=O)c1cnc(Sc2cc(Cl)c(Cl)cc2Cl)n1C)c1cccnc1 [I-A-56] | – | 70 | 2.86 | 2.92 | – |
| COc1ccc(Sc2ncc(C(=O)N(C)c3cccnc3)n2C)cc1 [I-A-58] | 90 | 70 | 1.62 | 1.79 | – |
| CN(C)c1ccc(Sc2ncc(C(=O)N(C)c3cccnc3)n2C)cc1 [I-A-59] | 90 | 90 | 1.55 | 2.11 | – |
| CN(C(=O)c1cnc(Sc2cc(Cl)ccc2Cl)n1C)c1cccnc1 [I-A-60] | 90 | 70 | 2.55 | 2.58 | – |
| CN(C(=O)c1cnc(Sc2cccc(C(F)(F)F)c2)n1C)c1cccnc1 [I-A-61] | 90 | 90 | – | – | – |
| CN(C(=O)c1cnc(Sc2ccc(F)cc2)n1C)c1cccnc1 [I-A-62] | – | – | – | – | pest or weed control at 500 g/ha [1, 4]: 90%; pest or weed control at 100 g/ha ([2]; MYZUPE, 100 g ai/ha, 6 dat): 70%; chromatographic logP [3, 7]: 1.66; chromatographic logP [3, 8]: 1.87 |
| CN(C(=O)c1cnc(Sc2ccc(Cl)c(C(F)(F)F)c2)n1C)c1cccnc1 [I-A-64] | 90 | 70 | 2.63 | 2.71 | – |
| CN(C(=O)c1cnc(Sc2ccccn2)n1C)c1cccnc1 [I-A-65] | 100 | 100 | 1.01 | 1.18 | – |
| CN(C(=O)c1cnc([S+]([O-])c2cc(Cl)cc(Cl)c2)n1C)c1cccnc1 (stereo not drawn) [I-A-77] | 90 | 70 | – | – | – |
| Cc1ccc(Sc2ncc(C(=O)N(C)c3cccnc3)n2C)nc1 [I-A-109] | 90 | 70 | – | – | – |

— patent publication US10368545B2, “Substituted 2-thioimidazolylcarboxamides as pesticides” (BAYER CROPSCIENCE AKTIENGESELLSCHAFT, priority 2015, dated 2019)
